# In paper PMC11121450, “Evaluation of the Inhibitory Potential of Synthetic Peptides Homologous to CDR3 Regions of a Monoclonal Antibody against Bothropic Venom Serine Proteases” (International Journal of Molecular Sciences, 2024):
# Residues, ends and D or L forms follow the SMILES beside them. No end group written: not given here.
# What was measured:
# [1] = system: B. jararaca and B. atrox venoms; type: in vitro ADME, Bothrops jararaca; Bothrops atrox; conditions: incubation with B. jararaca and B. atrox venoms (0.1 µg of both venoms per table footnote; 90 ng and 20 ng per method), 50 µM peptide, 4 h, 37 °C, 100 mM Tris HCl, 20 mM NaCl, pH 7.4; RP-HPLC C-18, UV 214 nm; relative to β-chain of insulin
# Protocol: To verify the stability of the synthetic peptides, they were incubated with both venoms, and tests were performed using reverse-phase liquid chromatography on a C-18 column. […] As a positive control, the β-chain of insulin was used, which is known to be a substrate for the SVSPs and SVMPs of bothropic venoms.
# With the aim of verifying the possible hydrolysis of peptides by the studied venoms, the samples were prepared in 100 mM Tris-HCl, 20 mM NaCl, pH 7.4, final volume 100 µL, using 50 µM of each synthetic peptide, incubating them separately with the venoms of B. jararaca (90 ng) and B. atrox (20 ng) for 4 h at 37 °C, the same concentrations used in the enzymatic assays. A solution containing the β-chain of insulin (50 µM) was used as a positive control since it is a described substrate for SVSP from both venoms. The conditions for the HPLC (Shimadzu Prominence) analysis used 0.1% trifluoroacetic acid (TFA) in water (solvent A), and acetonitrile (ACN) and solvent A (9:1) as solvent B. The analyses occurred at a flow rate of 1 mL/min using a C-18 column (Shim-pack VP-ODS4.6 x 150 mm) and a gradient of 20–60% solvent B for 20 min. In all cases, 50 µL of each sample was injected and the absorbance was monitored at 214 nm.
# [2] = target: human thrombin (Homo sapiens, UniProt P00734); test: Inhibition of human thrombin, Abz-FRSSRQ-EDDnp substrate; type: biochemical; conditions: for Ki: Dixon plot, three peptide concentrations including zero, thrombin 300 ng/µL, Abz-FRSSRQ-EDDnp substrate, read-out: inhibition constant (Ki) against human thrombin; for reduction of hydrolytic activity of thrombin: peptide 100 µM, 300 ng human thrombin, Abz-FRSSRQ-EDDnp 5 µM, 100 mM Tris-HCl, 20 mM NaCl, pH 7.4, 37 °C, quadruplicate
# Protocol: Figure 8 Inhibitory activity assay against human thrombin (panel A), trypsin (panel B), and elastase-1 (panel C). The experiments were performed in a fluorimeter (Hidex 425-301, Turku, Finland), with readings adjusted for excitation and emission at 320 and 420 nm using Abz-FRSSRQ-EDDnp as a substrate. Assays were performed in quadruplicate, in Tris-HCl 50 mM, pH 8.0 (for trypsin and elastase-1 assays), and 100 mM Tris-HCl, 20 mM NaCl, pH 7.4, for human thrombin at 37 °C, using 1.7 ng/µL of trypsin, 300 ng/µL of human thrombin, and 300 ng of elastase-1. […] Panel (B): For these assays, the peptides were used at 100 µM, and CDR3 A and CDR3 E inhibited the substrate hydrolysis by thrombin by 34% and 100%, respectively. […] (****) p < 0.0001.
# With the obtained velocities, curves were plotted on the Dixon plot (1/V versus [I]) (Figure 9).
# Lines indicate a competitive mechanism of action. Kis of 61.77 µM (CDR3 A) and 55.75 (CDR3 E) were obtained. For the construction of the graph, the software GraphPad Prism 8 was used.
# (§1) To verify the selective inhibition of the SVTLE by the peptides, it was necessary to perform experiments with other serine proteases of physiological relevance. For this, the possible inhibition of elastase-1 (EC 3.4.21.36), trypsin (EC 3.4.21.4), and human thrombin (EC 3.4.21.5) was analyzed. The evaluation of enzyme activities was performed as described above. The activities were assessed in 50 mM Tris-HCl, pH 8, for trypsin; Tris-HCl 50 mM, NaCl 50 mM, pH 8, for elastase-1; and 100 mM Tris-HCl, 20 mM NaCl, pH 7.4, for human thrombin (final volume of 100 µL), using 96-well plates (Corning) and the substrate Abz-FRSSRQ-EDDnp (5 µM). All reactions occurred at 37 °C using 1.7 ng of trypsin, 300 ng of human thrombin, and 300 ng of elastase-1. Assays were performed on a Hidex fluorimeter (425-301 Hidex, Turku, Finland), with the excitation and emission of fluorescence fixed at 320 and 420 nm, respectively. The trypsin and elastase-1 assays were performed using 20 µM of each peptide, and the human thrombin assays were performed using 100 µM. The readings occurred over 15 min at 1 min intervals. The experiments were performed in quadruplicate.
# [3] = target: elastase-1 (EC 3.4.21.36) (Sus scrofa, UniProt P00772); test: Inhibition of elastase-1, Abz-FRSSRQ-EDDnp substrate; type: biochemical; conditions: peptide 20 µM, 300 ng elastase-1, Abz-FRSSRQ-EDDnp 5 µM, Tris-HCl 50 mM, pH 8, 37 °C, quadruplicate
# Sequence of elastase-1 (EC 3.4.21.36) (P00772 27-266): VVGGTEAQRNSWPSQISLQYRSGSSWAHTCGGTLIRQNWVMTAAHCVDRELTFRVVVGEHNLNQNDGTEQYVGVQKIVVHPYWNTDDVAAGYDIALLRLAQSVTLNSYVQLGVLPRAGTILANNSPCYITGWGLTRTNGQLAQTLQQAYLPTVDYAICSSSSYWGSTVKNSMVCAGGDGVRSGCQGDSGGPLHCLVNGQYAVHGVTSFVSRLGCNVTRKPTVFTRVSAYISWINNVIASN
# Protocol: Figure 8 Inhibitory activity assay against human thrombin (panel A), trypsin (panel B), and elastase-1 (panel C). The experiments were performed in a fluorimeter (Hidex 425-301, Turku, Finland), with readings adjusted for excitation and emission at 320 and 420 nm using Abz-FRSSRQ-EDDnp as a substrate. Assays were performed in quadruplicate, in Tris-HCl 50 mM, pH 8.0 (for trypsin and elastase-1 assays), and 100 mM Tris-HCl, 20 mM NaCl, pH 7.4, for human thrombin at 37 °C, using 1.7 ng/µL of trypsin, 300 ng/µL of human thrombin, and 300 ng of elastase-1. […]
# as §1, with “The evaluation of enzyme activities was performed as described above.” left out, “All reactions occurred at 37 °C using 1.7 ng of trypsin, 300 ng of human thrombin, and 300 ng of elastase-1.” left out, “The trypsin and elastase-1 assays were performed using 20 µM of each peptide, and the human thrombin assays were performed using 100 µM.” left out, “The experiments were performed in quadruplicate.” left out
molecule,measurement,setting,value
CC(C)C[C@H](NC(=O)[C@H](CC(N)=O)NC(=O)[C@H](Cc1ccc(O)cc1)NC(=O)[C@H](CO)NC(=O)[C@H](CCC(N)=O)NC(=O)[C@H](CCCCN)NC(=O)[C@H](CS)NC(=O)CNC(=O)[C@@H]1CCCN1C(=O)CNC(=O)CNC(=O)[C@H](Cc1ccc(O)cc1)NC(=O)[C@H](CC(=O)O)NC(=O)[C@H](Cc1ccccc1)NC(=O)[C@H](Cc1ccc(O)cc1)NC(=O)[C@H](Cc1ccc(O)cc1)NC(=O)CNC(=O)[C@H](CC(=O)O)NC(=O)[C@H](Cc1c[nH]c2ccccc12)NC(=O)[C@H](CC(=O)O)NC(=O)[C@H](CCCNC(=N)N)NC(=O)[C@H](CCCCN)NC(=O)[C@@H](N)CS)C(=O)N[C@@H](CCCNC(=N)N)C(=O)N[C@H](C(=O)O)[C@@H](C)O [CDR3 D] (H-CKRDWDGYYFDYGGPGCKQSYNLRT-OH),Relative Hydrolysis Ratio (%),[1],<0.01%
CC(C)C[C@H](NC(=O)[C@H](CC(N)=O)NC(=O)[C@H](Cc1ccc(O)cc1)NC(=O)[C@H](CO)NC(=O)[C@H](CCC(N)=O)NC(=O)[C@H](CCCCN)NC(=O)[C@H](CS)NC(=O)CNC(=O)CNC(=O)[C@@H]1CCCN1C(=O)CNC(=O)CNC(=O)[C@H](Cc1ccc(O)cc1)NC(=O)[C@H](CC(=O)O)NC(=O)[C@H](Cc1ccccc1)NC(=O)[C@H](Cc1ccc(O)cc1)NC(=O)[C@H](Cc1ccc(O)cc1)NC(=O)CNC(=O)[C@H](CC(=O)O)NC(=O)[C@H](Cc1c[nH]c2ccccc12)NC(=O)[C@H](CC(=O)O)NC(=O)[C@H](CCCNC(=N)N)NC(=O)[C@H](CCCCN)NC(=O)[C@@H](N)CS)C(=O)N[C@@H](CCCNC(=N)N)C(=O)N[C@H](C(=O)O)[C@@H](C)O [CDR3 E] (H-CKRDWDGYYFDYGGPGGCKQSYNLRT-OH),Relative Hydrolysis Ratio (%),[1],<0.01%
same,Ki,[2],55.7 µM
same,reduction of hydrolytic activity of thrombin,[2],100%
CKQSYNLRT [CDR3 C],Relative Hydrolysis Ratio (%),[1],<0.01%
same,reduction of substrate hydrolysis by elastase-1,[3],22%
CKRDWDGYYFDY [CDR3 A],Relative Hydrolysis Ratio (%),[1],<0.01%
same,Ki,[2],61.8 µM
same,reduction of hydrolytic activity of thrombin,[2],34%
